# PubChem BioAssay AID330 (DTP/NCI, 2004)
# Values joined by “and” are separate entries in the source; they are usually repeats but may differ in a detail not shown here. Equal entries are not always repeated. Toxic doses and inconclusive results are not listed.
# System: P388 leukemia ip, CD2F1 mice, survival T/C
# Assay: NCI In Vivo Anticancer Drug Screen. Data for tumor model P388 Leukemia (intraperitoneal) in CD2F1 (CDF1) mice
# Conditions: endpoint: median survival time, higher = longer survival
# How it was run: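 Mice carrying the transplanted tumor received test compound or vehicle. Survival was recorded in each group, and the value is the treated-group measurement divided by that of the vehicle-treated control group.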
# [1] = dose: 60.0 mg/kg/injection, schedule: Q01DX005 (ip), vehicle: saline with Tween-80
# [2] = dose: 120.0 mg/kg/injection, schedule: Q01DX005 (ip), vehicle: saline with Tween-80
# [3] = dose: 50.0 mg/kg/injection, schedule: Q01DX005 (ip), vehicle: saline with Tween-80
# [4] = dose: 100.0 mg/kg/injection, schedule: Q01DX005 (ip), vehicle: saline with Tween-80
# [5] = dose: 200.0 mg/kg/injection, schedule: Q01DX005 (ip), vehicle: saline with Tween-80
# [6] = dose: 100.0 mg/kg/injection, schedule: Q04DX003 (ip), vehicle: Klucel (hydroxypropylcellulose) (HPC)
# [7] = dose: 200.0 mg/kg/injection, schedule: Q04DX003 (ip), vehicle: Klucel (hydroxypropylcellulose) (HPC)
# [8] = dose: 50.0 mg/kg/injection, schedule: Q01DX005 (ip), vehicle: Klucel (hydroxypropylcellulose) (HPC)
# [9] = dose: 100.0 mg/kg/injection, schedule: Q01DX005 (ip), vehicle: Klucel (hydroxypropylcellulose) (HPC)
# [10] = dose: 200.0 mg/kg/injection, schedule: Q01DX005 (ip), vehicle: Klucel (hydroxypropylcellulose) (HPC)
# [11] = dose: 240.0 mg/kg/injection, schedule: Q01DX005 (ip), vehicle: saline with Tween-80
smiles,measurement,setting,value
CC(=O)c1c[nH]c(=O)c2cc3c(cc12)OCO3,T/C,[1],95 % of control
same,T/C,[2],91 % of control
CO/C(C)=C1/C(=O)O/C(=C/Nc2ccccc2)C1=O,T/C,[3],107 % of control
same,T/C,[4],107 % of control
same,T/C,[5],96 % of control
COc1ccc2c(c1)c(CC(N)=O)c(C)n2C(=O)c1ccc(Cl)nc1,T/C,"dose: 52.75 mg/kg/injection, schedule: Q01DX005 (ip), vehicle: saline with Tween-80",94 % of control
same,T/C,"dose: 105.5 mg/kg/injection, schedule: Q01DX005 (ip), vehicle: saline with Tween-80",92 % of control
COc1cc2c(cc1OC)NCC1COc3c(ccc(OC)c3OC)C1=N2 (configuration not stated),T/C,[3],96 % of control
same,T/C,[4],88 % of control
same,T/C,[5],92 % of control
COC1/C=C/OC2(C)Oc3c(C)c(O)c4c(O)c(c(/C=N/n5cnc6c(ncn6C6OC(CO)C(O)C6O)c5=O)c(O)c4c3C2=O)NC(=O)/C(C)=C\C=C\C(C)C(O)C(C)C(O)C(C)C(OC(C)=O)C1C (configuration not stated),T/C,"dose: 50.0 mg/kg/injection, schedule: Q01DX009 (ip), vehicle: saline with Tween-80",106 % of control
same,T/C,"dose: 100.0 mg/kg/injection, schedule: Q01DX009 (ip), vehicle: saline with Tween-80",97 % of control
same,T/C,"dose: 200.0 mg/kg/injection, schedule: Q01DX009 (ip), vehicle: saline with Tween-80",102 % of control
O=C1CCCC2=C1C(c1ccccc1)/C(=N/O)O2 (configuration not stated),T/C,"dose: 50.0 mg/kg/injection, schedule: Q04DX003 (ip), vehicle: Klucel (hydroxypropylcellulose) (HPC)",97 % of control
same,T/C,[6],101 % of control
same,T/C,[7],100 % of control and 90 % of control
CCOc1ccc2c(O)csc2c1,T/C,"dose: 100.0 mg/kg/injection, schedule: Q04DX003 (ip), vehicle: saline with Tween-80",100 % of control
same,T/C,"dose: 200.0 mg/kg/injection, schedule: Q04DX003 (ip), vehicle: saline with Tween-80",100 % of control
same,T/C,"dose: 400.0 mg/kg/injection, schedule: Q04DX003 (ip), vehicle: saline with Tween-80",90 % of control
Cc1ccc(S(=O)(=O)NC(=O)c2cnc(N(C)C)s2)cc1,T/C,[8],104 % of control
same,T/C,[9],101 % of control
same,T/C,[10],107 % of control
O=C1NC(=O)C2(N1)C1CCCC2C(c2ccccc2)NC1c1ccccc1 (configuration not stated),T/C,[1],96 % of control
same,T/C,[2],91 % of control
same,T/C,[11],90 % of control
O=C1C(Cl)=C(Nc2cccc3ccccc23)C(=O)C(Cl)=C1Nc1cccc2ccccc12,T/C,[8],95 % of control
same,T/C,[9],88 % of control
same,T/C,[10],88 % of control
CN(C[CH2][Sn]([CH3])([CH3])[Cl])C[CH2][Sn]([CH3])([CH3])[Cl],T/C,"dose: 3.75 mg/kg/injection, schedule: Q01DX005 (ip), vehicle: saline",102 % of control
same,T/C,"dose: 7.5 mg/kg/injection, schedule: Q01DX005 (ip), vehicle: saline",121 % of control
C=CCSc1nc2ccc(NCn3c(=S)sc4cc([N+](=O)[O-])ccc43)cc2s1,T/C,[6],90 % of control
same,T/C,[7],86 % of control
CC(CN1CCCCC1)NC(=O)c1scnc1-c1ccccc1 (configuration not stated),T/C,[1],116 % of control
same,T/C,[2],98 % of control
Cc1nc2ccccc2c(=O)n1/N=C/c1ccc(Cl)cc1Cl,T/C,[3],92 % of control
same,T/C,[4],100 % of control
CC(=O)NC(C=O)C(O)C(O)C(O)C(=O)O (configuration not stated),T/C,"dose: 25.0 mg/kg/injection, schedule: Q01DX009 (ip), vehicle: Klucel (hydroxypropylcellulose) (HPC)",107 % of control
same,T/C,"dose: 50.0 mg/kg/injection, schedule: Q01DX009 (ip), vehicle: Klucel (hydroxypropylcellulose) (HPC)",100 % of control
same,T/C,"dose: 100.0 mg/kg/injection, schedule: Q01DX009 (ip), vehicle: Klucel (hydroxypropylcellulose) (HPC)",107 % of control
COC(=O)N1c2ccccc2N(C(=O)OC)C1C#N,T/C,[1],108 % of control
same,T/C,[2],98 % of control
same,T/C,[11],112 % of control
